IC50 data for one compound are collected here from PubChem BioAssay AID651895 (Broad Institute, 2012).

What is called IC50 is the midpoint of a concentration-inhibition curve.

Calls of active or inactive are those of the source.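 Rule for the calls: active = IC50 under 100 times the reference toxin's IC50 in the same rat muscle cell viability test; inactive = the rest.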

For this experiment, the system named is L-6 rat myoblast viability, Alamar blue, 72 h. Nature of the experiment: host muscle cell viability loss – plate reader, dry powder, counter-screen for T. cruzi inhibitor project, dose response (AID 651895). On the technique in general: The purpose of a counterscreen is to sort out artefacts and off-target activity.

`C[C@@H]1CN([C@@H](C)CO)C(=O)c2cccc(NC(=O)c3ccncc3)c2O[C@H]1CN(C)Cc1ccc(Oc2ccccc2)cc1`: the IC50 was 14.8 µM (inactive).
